Data: patent publication EP4635500A1, “THERAPEUTIC AGENT FOR BACTERIAL INFECTION” (Sumitomo Pharma Co., Ltd., priority 2022, dated 2024)
In brackets after ≈: the same amount, converted by molar mass. Like-named read-outs stand apart in the source and are kept apart here.

Test system: carbapenemase-producing Enterobacteriaceae (CPE)
Assay: MIC in human urine and CAMHB at pH 5.0 to 8.0 (Example 13, Tables 29, 30)

SMILES: C[C@@H](O)[C@H]1C(=O)N2C(C(=O)O)=C(S[C@@H]3CN[C@H](C(=O)N(C)C)C3)[C@H](C)[C@H]12 [MEPM, meropenem]
- MIC (Escherichia coli, ATCC25922, pH 5, read-out: MICs of MEPM, E. coli ATCC 25922 (QC strain), CAMHB pH5.0): 0.12 µg/mL (≈ 0.313 µM)
- MIC (Escherichia coli, ATCC25922, pH 5, read-out: MICs of MEPM, E. coli ATCC 25922 (QC strain), Human urine pH5.0): 0.12 µg/mL (≈ 0.313 µM)
- MIC (Escherichia coli, ATCC25922, pH 6, read-out: MICs of MEPM, E. coli ATCC 25922 (QC strain), CAMHB pH6.0): 0.06 µg/mL (≈ 0.156 µM)
- MIC (Escherichia coli, ATCC25922, pH 6, read-out: MICs of MEPM, E. coli ATCC 25922 (QC strain), Human urine pH6.0): 0.03 µg/mL (≈ 0.0782 µM)
- MIC (Escherichia coli, ATCC25922, pH 7, read-out: MICs of MEPM, E. coli ATCC 25922 (QC strain), Human urine pH7.0): 0.015 µg/mL (≈ 0.0391 µM)
- MIC (Escherichia coli, ATCC25922, pH 7.2, read-out: MICs of MEPM, E. coli ATCC 25922 (QC strain), Standard condition (CAMHB pH7.2)): 0.03 µg/mL (≈ 0.0782 µM)
- MIC (Escherichia coli, ATCC25922, pH 8, read-out: MICs of MEPM, E. coli ATCC 25922 (QC strain), CAMHB pH8.0): 0.015 µg/mL (≈ 0.0391 µM)
- MIC (Escherichia coli, ATCC25922, pH 8, read-out: MICs of MEPM, E. coli ATCC 25922 (QC strain), Human urine pH8.0): 0.015 µg/mL (≈ 0.0391 µM)
- MIC (Escherichia coli, ATCCBAA2340, pH 5, read-out: MICs of MEPM, E. coli ATCC BAA-2340 (KPC-3), CAMHB pH5.0): 2 µg/mL (≈ 5.22 µM)
- MIC (Escherichia coli, ATCCBAA2340, pH 5, read-out: MICs of MEPM, E. coli ATCC BAA-2340 (KPC-3), Human urine pH5.0): 1 µg/mL (≈ 2.61 µM)
- MIC (Escherichia coli, ATCCBAA2340, pH 6, read-out: MICs of MEPM, E. coli ATCC BAA-2340 (KPC-3), CAMHB pH6.0): 8 µg/mL (≈ 20.9 µM)
- MIC (Escherichia coli, ATCCBAA2340, pH 6, read-out: MICs of MEPM, E. coli ATCC BAA-2340 (KPC-3), Human urine pH6.0): 1 µg/mL (≈ 2.61 µM)
- MIC (Escherichia coli, ATCCBAA2340, pH 7, read-out: MICs of MEPM, E. coli ATCC BAA-2340 (KPC-3), Human urine pH7.0): 2 µg/mL (≈ 5.22 µM)
- MIC (Escherichia coli, ATCCBAA2340, pH 7.2, read-out: MICs of MEPM, E. coli ATCC BAA-2340 (KPC-3), Standard condition (CAMHB pH7.2)): 8 µg/mL (≈ 20.9 µM)
- MIC (Escherichia coli, ATCCBAA2340, pH 8, read-out: MICs of MEPM, E. coli ATCC BAA-2340 (KPC-3), CAMHB pH8.0): 4 µg/mL (≈ 10.4 µM)
- MIC (Escherichia coli, ATCCBAA2340, pH 8, read-out: MICs of MEPM, E. coli ATCC BAA-2340 (KPC-3), Human urine pH8.0): 8 µg/mL (≈ 20.9 µM)
- MIC (Escherichia coli, ATCCBAA2469, pH 5, read-out: MICs of MEPM, E. coli ATCC BAA-2469 (NDM-1), CAMHB pH5.0): 0.12 µg/mL (≈ 0.313 µM)
- MIC (Escherichia coli, ATCCBAA2469, pH 5, read-out: MICs of MEPM, E. coli ATCC BAA-2469 (NDM-1), Human urine pH5.0): 0.12 µg/mL (≈ 0.313 µM)
- MIC (Escherichia coli, ATCCBAA2469, pH 6, read-out: MICs of MEPM, E. coli ATCC BAA-2469 (NDM-1), CAMHB pH6.0): 8 µg/mL (≈ 20.9 µM)
- MIC (Escherichia coli, ATCCBAA2469, pH 6, read-out: MICs of MEPM, E. coli ATCC BAA-2469 (NDM-1), Human urine pH6.0): 0.12 µg/mL (≈ 0.313 µM)
- MIC (Escherichia coli, ATCCBAA2469, pH 7, read-out: MICs of MEPM, E. coli ATCC BAA-2469 (NDM-1), Human urine pH7.0): 16 µg/mL (≈ 41.7 µM)
- MIC (Escherichia coli, ATCCBAA2469, pH 7.2, read-out: MICs of MEPM, E. coli ATCC BAA-2469 (NDM-1), Standard condition (CAMHB pH7.2)): 32 µg/mL (≈ 83.4 µM)
- MIC (Escherichia coli, ATCCBAA2469, pH 8, read-out: MICs of MEPM, E. coli ATCC BAA-2469 (NDM-1), CAMHB pH8.0): 64 µg/mL (≈ 167 µM)
- MIC (Escherichia coli, ATCCBAA2469, pH 8, read-out: MICs of MEPM, E. coli ATCC BAA-2469 (NDM-1), Human urine pH8.0): 8 µg/mL (≈ 20.9 µM)
- MIC (Escherichia coli, NCTC13476, pH 5, read-out: MICs of MEPM, E. coli NCTC 13476 (IMP-1), CAMHB pH5.0): 0.25 µg/mL (≈ 0.652 µM)
- MIC (Escherichia coli, NCTC13476, pH 5, read-out: MICs of MEPM, E. coli NCTC 13476 (IMP-1), Human urine pH5.0): 0.25 µg/mL (≈ 0.652 µM)
- MIC (Escherichia coli, NCTC13476, pH 6, read-out: MICs of MEPM, E. coli NCTC 13476 (IMP-1), CAMHB pH6.0): 1 µg/mL (≈ 2.61 µM)
- MIC (Escherichia coli, NCTC13476, pH 6, read-out: MICs of MEPM, E. coli NCTC 13476 (IMP-1), Human urine pH6.0): 0.12 µg/mL (≈ 0.313 µM)
- MIC (Escherichia coli, NCTC13476, pH 7, read-out: MICs of MEPM, E. coli NCTC 13476 (IMP-1), Human urine pH7.0): 1 µg/mL (≈ 2.61 µM)
- MIC (Escherichia coli, NCTC13476, pH 7.2, read-out: MICs of MEPM, E. coli NCTC 13476 (IMP-1), Standard condition (CAMHB pH7.2)): 4 µg/mL (≈ 10.4 µM)
- MIC (Escherichia coli, NCTC13476, pH 8, read-out: MICs of MEPM, E. coli NCTC 13476 (IMP-1), CAMHB pH8.0): 16 µg/mL (≈ 41.7 µM)
- MIC (Escherichia coli, NCTC13476, pH 8, read-out: MICs of MEPM, E. coli NCTC 13476 (IMP-1), Human urine pH8.0): 8 µg/mL (≈ 20.9 µM)
- MIC (Klebsiella pneumoniae, ATCCBAA2342, pH 5, read-out: MICs of MEPM, K. pneumoniae ATCC BAA-2342 (KPC-3), CAMHB pH5.0): 16 µg/mL (≈ 41.7 µM)
- MIC (Klebsiella pneumoniae, ATCCBAA2342, pH 5, read-out: MICs of MEPM, K. pneumoniae ATCC BAA-2342 (KPC-3), Human urine pH5.0): 4 µg/mL (≈ 10.4 µM)
- MIC (Klebsiella pneumoniae, ATCCBAA2342, pH 6, read-out: MICs of MEPM, K. pneumoniae ATCC BAA-2342 (KPC-3), CAMHB pH6.0): 16 µg/mL (≈ 41.7 µM)
- MIC (Klebsiella pneumoniae, ATCCBAA2342, pH 6, read-out: MICs of MEPM, K. pneumoniae ATCC BAA-2342 (KPC-3), Human urine pH6.0): 8 µg/mL (≈ 20.9 µM)
- MIC (Klebsiella pneumoniae, ATCCBAA2342, pH 7, read-out: MICs of MEPM, K. pneumoniae ATCC BAA-2342 (KPC-3), Human urine pH7.0): 16 µg/mL (≈ 41.7 µM)
- MIC (Klebsiella pneumoniae, ATCCBAA2342, pH 7.2, read-out: MICs of MEPM, K. pneumoniae ATCC BAA-2342 (KPC-3), Standard condition (CAMHB pH7.2)): 16 µg/mL (≈ 41.7 µM)
- MIC (Klebsiella pneumoniae, ATCCBAA2342, pH 8, read-out: MICs of MEPM, K. pneumoniae ATCC BAA-2342 (KPC-3), CAMHB pH8.0): 16 µg/mL (≈ 41.7 µM)
- MIC (Klebsiella pneumoniae, ATCCBAA2342, pH 8, read-out: MICs of MEPM, K. pneumoniae ATCC BAA-2342 (KPC-3), Human urine pH8.0): 32 µg/mL (≈ 83.4 µM)
- MIC (Klebsiella pneumoniae, ATCCBAA2344, pH 5, read-out: MICs of MEPM, K. pneumoniae ATCC BAA-2344 (KPC-2), CAMHB pH5.0): 8 µg/mL (≈ 20.9 µM)
- MIC (Klebsiella pneumoniae, ATCCBAA2344, pH 5, read-out: MICs of MEPM, K. pneumoniae ATCC BAA-2344 (KPC-2), Human urine pH5.0): 2 µg/mL (≈ 5.22 µM)
- MIC (Klebsiella pneumoniae, ATCCBAA2344, pH 6, read-out: MICs of MEPM, K. pneumoniae ATCC BAA-2344 (KPC-2), CAMHB pH6.0): 32 µg/mL (≈ 83.4 µM)
- MIC (Klebsiella pneumoniae, ATCCBAA2344, pH 6, read-out: MICs of MEPM, K. pneumoniae ATCC BAA-2344 (KPC-2), Human urine pH6.0): 8 µg/mL (≈ 20.9 µM)
- MIC (Klebsiella pneumoniae, ATCCBAA2344, pH 7, read-out: MICs of MEPM, K. pneumoniae ATCC BAA-2344 (KPC-2), Human urine pH7.0): 32 µg/mL (≈ 83.4 µM)
- MIC (Klebsiella pneumoniae, ATCCBAA2344, pH 7.2, read-out: MICs of MEPM, K. pneumoniae ATCC BAA-2344 (KPC-2), Standard condition (CAMHB pH7.2)): 32 µg/mL (≈ 83.4 µM)
- MIC (Klebsiella pneumoniae, ATCCBAA2344, pH 8, read-out: MICs of MEPM, K. pneumoniae ATCC BAA-2344 (KPC-2), CAMHB pH8.0): 32 µg/mL (≈ 83.4 µM)
- MIC (Klebsiella pneumoniae, ATCCBAA2344, pH 8, read-out: MICs of MEPM, K. pneumoniae ATCC BAA-2344 (KPC-2), Human urine pH8.0): 32 µg/mL (≈ 83.4 µM)
- MIC (Klebsiella pneumoniae, ATCCBAA2470, pH 5, read-out: MICs of MEPM, K. pneumoniae ATCC BAA-2470 (NDM-1), CAMHB pH5.0): 0.12 µg/mL (≈ 0.313 µM)
- MIC (Klebsiella pneumoniae, ATCCBAA2470, pH 5, read-out: MICs of MEPM, K. pneumoniae ATCC BAA-2470 (NDM-1), Human urine pH5.0): 0.12 µg/mL (≈ 0.313 µM)
- MIC (Klebsiella pneumoniae, ATCCBAA2470, pH 6, read-out: MICs of MEPM, K. pneumoniae ATCC BAA-2470 (NDM-1), CAMHB pH6.0): 8 µg/mL (≈ 20.9 µM)
- MIC (Klebsiella pneumoniae, ATCCBAA2470, pH 6, read-out: MICs of MEPM, K. pneumoniae ATCC BAA-2470 (NDM-1), Human urine pH6.0): 0.12 µg/mL (≈ 0.313 µM)
- MIC (Klebsiella pneumoniae, ATCCBAA2470, pH 7, read-out: MICs of MEPM, K. pneumoniae ATCC BAA-2470 (NDM-1), Human urine pH7.0): 16 µg/mL (≈ 41.7 µM)
- MIC (Klebsiella pneumoniae, ATCCBAA2470, pH 7.2, read-out: MICs of MEPM, K. pneumoniae ATCC BAA-2470 (NDM-1), Standard condition (CAMHB pH7.2)): 16 µg/mL (≈ 41.7 µM)
- MIC (Klebsiella pneumoniae, ATCCBAA2470, pH 8, read-out: MICs of MEPM, K. pneumoniae ATCC BAA-2470 (NDM-1), CAMHB pH8.0): 64 µg/mL (≈ 167 µM)
- MIC (Klebsiella pneumoniae, ATCCBAA2470, pH 8, read-out: MICs of MEPM, K. pneumoniae ATCC BAA-2470 (NDM-1), Human urine pH8.0): 8 µg/mL (≈ 20.9 µM)
- MIC (Klebsiella pneumoniae, ATCCBAA2524, pH 5, read-out: MICs of MEPM, K. pneumoniae ATCC BAA-2524 (OXA-48), CAMHB pH5.0): 0.25 µg/mL (≈ 0.652 µM)
- MIC (Klebsiella pneumoniae, ATCCBAA2524, pH 5, read-out: MICs of MEPM, K. pneumoniae ATCC BAA-2524 (OXA-48), Human urine pH5.0): 0.25 µg/mL (≈ 0.652 µM)
- MIC (Klebsiella pneumoniae, ATCCBAA2524, pH 6, read-out: MICs of MEPM, K. pneumoniae ATCC BAA-2524 (OXA-48), CAMHB pH6.0): 0.25 µg/mL (≈ 0.652 µM)
- MIC (Klebsiella pneumoniae, ATCCBAA2524, pH 6, read-out: MICs of MEPM, K. pneumoniae ATCC BAA-2524 (OXA-48), Human urine pH6.0): 0.25 µg/mL (≈ 0.652 µM)
- MIC (Klebsiella pneumoniae, ATCCBAA2524, pH 7, read-out: MICs of MEPM, K. pneumoniae ATCC BAA-2524 (OXA-48), Human urine pH7.0): 0.25 µg/mL (≈ 0.652 µM)
- MIC (Klebsiella pneumoniae, ATCCBAA2524, pH 7.2, read-out: MICs of MEPM, K. pneumoniae ATCC BAA-2524 (OXA-48), Standard condition (CAMHB pH7.2)): 1 µg/mL (≈ 2.61 µM)
- MIC (Klebsiella pneumoniae, ATCCBAA2524, pH 8, read-out: MICs of MEPM, K. pneumoniae ATCC BAA-2524 (OXA-48), CAMHB pH8.0): 4 µg/mL (≈ 10.4 µM)
